Measurements reported in US20160067221A1, “USE OF ERGOTHIONEINE FOR INDUCING ACTIVITY OF NRF2 IN CELL” (China Medical University, priority 2014, published 2016).

Assays:
Nrf2 = Nrf2 nuclear translocation (Western blot of cytosolic and nuclear Nrf2, immunofluorescence staining); type: cell-based, human; settings: for nuclear Nrf2 protein expression / cytosolic Nrf2 protein expression: Western blot
Description: This example next investigates the effect of the ergothioneine on the Nrf2 nuclear translocation. The HaCat cells are pretreated with the ergothioneine for 24 hours, and then exposed to 15 J/cm^2 UVA for 1 hour. The protein expressions of a cytosolic Nrf2 and a nuclear Nrf2 are detected by the Western blot analysis, and a nuclear import of Nrf2 of the HaCaT cell is monitored by an immunofluorescence staining.
FIG. 9 illustrates the effect of the ergothioneine on the protein expressions of the cytosolic Nrf2 and the nuclear Nrf2 of the UVA-irradiated HaCaT cells. FIG. 9-(A) represents the Western blot analysis result. FIG. 9-(B) is the fluorescent photomicrograph of the immunofluorescence staining (200× magnifications). […] In FIG. 9-(B), the nucleus is labelled with 4′,6-diamidino-2-phenylindole (DAPI), and the Nrf2 is labelled with green fluorescence to measure the expression and a localization of the Nrf2.

[1] = test system: UVA-irradiated HaCaT cells; assay: LDH release (UVA-induced cell membrane damage); type: cell-based, human; settings: 125, 250, 500 nM 24 hours, then 15 J/cm^2 UVA, 4 hours
Description: Under normal physiological condition, a lactate dehydrogenase (LDH) is presented in the cytoplasm. The cell membranes are damaged or disrupted when the cells are attacked by excessive ROS. Accordingly, the intracellular LDH releases into the culture medium. Therefore, a detection amount of LDH release is an indicator of a cell membrane damaged condition. The HaCaT cells are seeded in a 12-well plate with 1×10^5 cells/well and then maintained at 37° C. in the humidified atmosphere of 5% CO2 until the HaCaT cells are adhered in the next day. […] After incubation, the HaCaT cells are washed with PBS three times and resuspended in fresh phenol red-free DMEM supplemented with 10% FBS. Then, the HaCaT cells are exposed to the UVA (15 J/cm^2) for 4 hours. The culture medium is taken from the well, and then centrifuged at 400×g for 5 minutes by using a high speed centrifuge. After the centrifugation, 50 μL of the supernatant is taken and added into the 96-well microplate, and the 50 μL of a substrate mixture is added in each well to act at room temperature for 20 minutes in the dark. Then, 50 μl. of a stopping solution (1N HCl) is added in each well to stop the reaction, and then the absorbance at 490 nm is measured.

[2] = ergothioneine alone, vs control

C[N+](C)(C)[C@@H](Cc1c[nH]c(=S)[nH]1)C(=O)[O-] [ergothioneine, 2-mercapto histidine trimethylbetain]
nuclear Nrf2 protein expression (Nrf2; ergothioneine 24 hours prior to 15 J/cm^2 UVA, 1 hour): significantly increased | fluorescence intensity of the Nrf2 (Nrf2; ergothioneine alone, immunofluorescence staining): slightly increased | cytosolic Nrf2 protein expression (Nrf2; [2]): significantly decreased | nuclear Nrf2 protein expression (Nrf2; [2]): slightly increased | fluorescence intensity of the nuclear Nrf2 (Nrf2; ergothioneine prior to UVA irradiation, immunofluorescence staining): pronounced fluorescence intensity of the nuclear Nrf2 | cytosolic Nrf2 protein expression (Nrf2; ergothioneine prior to UVA irradiation, vs control): significantly decreased | LDH release [1]: inhibits the LDH release in a dose-dependent manner
